Results taken from BigSolDB 2.1.

CCOc1ncc(C)c2c1[C@H](c1ccc(C#N)cc1OC)C(C(N)=O)=C(C)N2
solubility (mole fraction)
Settings | in 2-butanone | in acetone | in acetonitrile | in dichloromethane | in ethanol | in ethyl acetate | in isopropanol | in isopropyl acetate | in methanol | in methyl acetate
273.15 K | 0.0031 | 0.00376 | 0.000808 | 0.0047 | 0.000949 | 0.00114 | 0.000229 | 0.000378 | 0.004 | 0.00127
278.15 K | 0.00347 | 0.00407 | 0.000973 | 0.00506 | 0.00115 | 0.00128 | 0.000333 | 0.000459 | 0.00422 | 0.00136
283.15 K | 0.00376 | 0.00449 | 0.00111 | 0.00565 | 0.00135 | 0.00143 | 0.000443 | 0.000563 | 0.0045 | 0.0015
288.15 K | 0.0041 | 0.00508 | 0.00129 | 0.00622 | 0.00156 | 0.00157 | 0.000554 | 0.000647 | 0.00484 | 0.00166
293.15 K | 0.0044 | 0.00545 | 0.00144 | 0.00669 | 0.00182 | 0.0017 | 0.000682 | 0.000728 | 0.00515 | 0.00182
298.15 K | 0.00468 | 0.00577 | 0.00166 | 0.00724 | 0.00206 | 0.00182 | 0.000822 | 0.000809 | 0.00553 | 0.00197
303.15 K | 0.00508 | 0.00614 | 0.0019 | 0.00766 | 0.00233 | 0.00195 | 0.000984 | 0.00089 | 0.00599 | 0.00211
308.15 K | 0.00542 | 0.00665 | 0.00217 | 0.00814 | 0.00261 | 0.00211 | 0.00122 | 0.000979 | 0.00638 | 0.00229
313.15 K | 0.00587 | 0.00725 | 0.00247 | – | 0.00299 | 0.00225 | 0.00152 | 0.00113 | 0.00684 | 0.00248
